Assay results reported in PMC4373826, “Antiviral Effect of Methylated Flavonol Isorhamnetin against Influenza” (PLoS ONE, 2015).
Marks after values point to notes of the source that are not given here.

How the values were obtained:
[1] = tested on: influenza A/PR/8/34 (H1N1); assay type: cell-based, influenza A virus; settings: post-treatment 48 hr
[2] = tested on: influenza A/PR/8/34 (H1N1) virus particles, chicken RBCs; settings: lowest concentration
[3] = tested on: influenza viral genes HA and NA; experiment: RT-PCR of viral HA and NA genes; assay type: cell-based, influenza A virus
[4] = tested on: virus-induced ROS generation in MDCK cells; experiment: Virus-induced ROS generation assay (H2DCFDA); assay type: cell-based, canine; settings: 50 μM
Method: For the ROS generation assay, MDCK cells were seeded onto 24-well plates and incubated overnight for 80% confluence. The MDCK cells were infected with the virus as described previously and then treated with the flavonoids (post-treatment method). Intracellular ROS levels were detected using a cell-permeable oxidant-sensitive fluorescent probe, 2′, 7′-dichiorofluorescin diacetate (H2DCFDA, Molecular Probes, Eugene, OR, USA). The cells were incubated with 10 μM of H2DCFDA for 30 min at 37°C in the dark. After incubation, the cells were washed twice and covered with PBS. The average ROS generation was determined by fluorescent images that were captured using Nikon Eclipse TE2000-U fluorescence inverted microscope (Nikon, Tokyo, Japan). In this experiment, we used N-acetyl-L-cysteine (NAC; Sigma-Aldrich), a ROS scavenger reagent, and at a concentration of 15 mM as a positive control treatment.

ERK = experiment: Western blot for ERK phosphorylation; assay type: cell-based, canine; settings: 50 μM
Method: To prepare whole-cell extracts, cells were washed 3 times using cold PBS, scraped from the dishes, and suspended in protein extraction buffer containing 1% Triton X-100 (Amresco), 100 mM Tris-HCl, 10 mM NaCl, 10% glycerol, 1 mM sodium orthovanadate (Sigma-Aldrich), 50 mM sodium fluoride (Sigma-Aldrich), and 1 mM phenylmethylsulfonyl fluoride (PMSF; Sigma-Aldrich). After incubation on ice for 30 min, lysates were centrifuged and proteins in the supernatants were quantified using the Bradford Protein Assay Reagent (Bio-Rad). Protein samples were separated via 10% SDS-PAGE and transferred to nitrocellulose membranes ([…]; Protran, Newton, NJ, USA). The membranes were blocked using 5% nonfat dry milk and 0.1% Tween-20 in Tris-buffered saline and probed with the primary antibody. Western blotting was performed using antibodies against t-ERK, p-ERK, actin (Santa Cruz Biotechnology, Dallas, TX, USA), and LC3B (Novus Biologicals, San Diego, CA, USA), as well as anti-mouse, anti-rabbit, and anti-goat IgG-peroxidase-conjugated secondary antibodies (Santa Cruz Biotechnology) and an enhanced chemiluminescence (ECL) kit (Amersham Biosciences, Piscataway, NJ, USA).

[5] = tested on: influenza A/PR/8/34 (H1N1); experiment: In vivo antiviral assay in infected mice; design: species or system C57BL/6 mice
Method: Six-week-old female C57BL/6 mice purchased from KOATECH (Pyeongtaek, South Korea) infected with the PR8 influenza strain (A/PR/8/34, H1N1). After anesthesia, mice were inoculated with 4.25 log10EID50/mL (5 MLD50/mice) in 30 μL sterile PBS via the intranasal route. Two hours post-infection, each group (13 mice) received the following compounds: (1) Tamiflu capsules were dissolved in PBS at a concentration of 10mg/kg and then centrifuged at 1,000rpm/10minutes for removal of the filler. From this solution 200 μL was administered per day orally for 5 days, or (2) flavonoid (Isorhamnetin) was initially dissolved in 0.2% DMSO and then diluted in PBS to a final concentration of 1 mg/kg and less than 0.2% DMSO. This mixture mixed will by vortex and 30 μL of this mixture was administered per day via the intranasal route for 5 days.
One week after infection, the lungs of 3 mice per group were collected for the virology analysis. Lung tissues were excised, homogenized using a homogenizer (Tissue Lyser, Qiagen, Valencia, CA, USA), and centrifuged (2,000 g for 5 min). Ten-fold serial dilutions of the supernatant from the lung homogenate samples were subjected to the virology assays for virus titer determination. Lung homogenates were injected into the allantoic sac of 10-day-old embryonated eggs, which were incubated at 37°C for 48 hr, after which the allantoic fluid was harvested. The virus titer in the allantoic fluid was assessed using the HA assay. The virus titer (EID50/mL) in the fluid was calculated based on the method of Reed and Muench. For the assessments of body weight and survival rate, mice were observed daily for 14 days and monitored for clinical signs.

[6] = tested on: influenza A/PR/8/34 (H1N1); experiment: In ovo virus titer in embryonated chicken egg; assay type: in vivo
Method: Virus was serially diluted (10-fold serial dilution) and inoculated into the eggs, and then the virus titers were calculated as log10EID50/ml. At the cellular level, virus titration was determined via the hemagglutination assay (as described in detail in the WHO surveillance guidelines) and by the cytopathic effect (CPE) of MDCK cells induced by viral infection, and expressed as 50% tissue culture infectious doses (TCID50), which were calculated based on the method of Reed and Muench.In mice, 50% mouse lethal dose (MLD50) was defined as 50% egg infective dose (EID50) that led to 50% mice mortality that calculated according to Reed and Muench. The flavonoids quercetin, kaempferol, isorhamnetin, diosmetin, and eriodictyol were purchased from the Indofine Chemical Company, Hillsborough, NJ, USA. The flavonoids and PD-98059 (MEK inhibitor, Calbiochem, La Jolla, CA, USA) were dissolved in dimethylsulfoxide (DMSO, Sigma-Aldrich).The final concentration of DMSO in the culture media is 0.2% (v/v). Tamiflu (Oseltamivir, 75 mg) was purchased from Roche-Korea (Seoul, South Korea) Co. Ltd.

[7] = infected mice, abstract says oral administration

## COc1cc(-c2oc3cc(O)cc(O)c3c(=O)c2O)ccc1O [Isorhamnetin, isorhamnetin]
[1]
  virus titer in HA assay (virus yield reduction): almost completely suppressed
[2]
  hemolysis of chicken RBCs by the virus particle (HI assay): significantly inhibited
[3]
  expression of HA and NA: markedly decreased
[4]
  virus-induced ROS generation: significant reduction
ERK
  virus-induced ERK phosphorylation: significantly suppressed
[5]; data not shown
  toxic effect in mice: no significant toxic effect
[5]; infected mice, observed 14 days
  survival rate: 70–80%
[5]; [7]
  decrease in body weight loss: 25%
  decrease in lung virus titer: 2 folds
[5]; vs PBS control group, 14 days
  body weight loss: reduced body weight loss
[6]
  Virus titer (Embryonated chicken egg): 10^8 ^* EID50/ml
